Experimental data: patent publication US20040259905A1, “Aqueous ecabet sodium solution preparation” (priority 2001, published 2004)
Structures can show the parent of a compound that is named as a salt.

Experiment: Solubility of ecabet sodium in aqueous solution
Format: physicochemical
Conditions: pH less than pH 7

solubility in an aqueous solution: low
Structure (SMILES): CC(C)c1cc2c(cc1S(=O)(=O)O)[C@@]1(C)CCC[C@@](C)(C(=O)O)[C@@H]1CC2 [ecabet sodium, (+)-(1R,4aS,10aR)-1,2,3,4,4a,9,10,10a-octahydro-1,4a-dimethyl-7-(1-methylethyl)-6-sulfo-1-phenanthrencarboxylic acid 6-sodium salt pentahydrate]
